Assay [1] has as its system mice. Kind of assay: Symptoms of fibromyalgia (pain, depression) in mice with AMPK inhibited by compound c. The assay is classed as in vivo. Conditions: then metformin. From the text:
In order to monitor the effect of metformin in an in vivo model of AMPK deficit, we will use mice that will be administered compound c, a specific inhibitor of AMPK phosphorylation, in time, and their behaviour will be characterised one week before starting the administrations of compound c and 7 days after the first administration. […] Prior to beginning the administration of compound c and metformin, and following the pain behaviour tests, other behavioural tests will be conducted which show other symptoms presented by patients with fibromyalgia: […]

Assay [2] relates to mice. Kind of assay: Hot-plate test (nociception) in mice. Conditions: after first five days of compound c; at Temp.<50° C. and Temp.>50° C.; FIG. 9. In kind it is in vivo. From the text: Another symptom associated with pain in fibromyalgia is depression.
In order to monitor the effect of metformin in an in vivo model of AMPK deficit, we will use mice that will be administered compound c, a specific inhibitor of AMPK phosphorylation, in time, and their behaviour will be characterised one week before starting the administrations of compound c and 7 days after the first administration. This experimental design will provide us with a view as to how metformin inhibits the effects induced by the deficit of AMPK and its influence on the behaviour of the mice, monitoring, with particular interest, those tests that show an alteration of nociception (hot plate, visceral pain [J Neurochem (2007) 103: 2629-39] and muscle pain [J Neurosci (2007) 27: 10000-6]). Prior to beginning the administration of compound c and metformin, and following the pain behaviour tests, other behavioural tests will be conducted which show other symptoms presented by patients with fibromyalgia: […]

The subject of assay [3] is AMPK phosphorylation. The assay is described as follows: Mouse model of AMPK activation deficiency induced by compound C: biochemical parameters. In kind it is in vivo, mice of the Swiss strain. Conditions: for ATP (deficit) / citrate synthase (mitochondrial mass) / lipid peroxidation / activation of IL-1β interleukin of the inflammasome / activation of IL-18 interleukin of the inflammasome: mice, compound C 20 mg/kg/day i.p., alone or with metformin; for ATP (deficit): FIG. 5; for citrate synthase (mitochondrial mass): FIG. 6; for lipid peroxidation / activation of IL-1β interleukin of the inflammasome / activation of IL-18 interleukin of the inflammasome: serum; for lipid peroxidation: FIG. 7; for activation of IL-1β interleukin of the inflammasome / activation of IL-18 interleukin of the inflammasome: FIG. 8. The procedure: The mice were injected by intraperitoneal route once a day, the final daily dose being 20 mg/kg/day. Another group of mice received the treatment with Compound C in addition to Metformin. The treatment is performed until the day the animals are sacrificed. […]
Blood: The blood will be the starting-point to obtain serum or isolate leukocytes. The following will be measured in the serum: glucose, triglycerides, cholesterol, lactate, proteins, redox potential, protein oxidation, etc. The following will be measured in the leukocytes: ATP, inflammatory interleukins, oxidative stress, mitochondrial mass.

Assay [4] concerns mice. The following applies: after first five days of compound c; FIG. 10. From the text:
Following the first five days of administration of compound c, behavioural determinations were made in order to evaluate the symptoms. […] Another symptom associated with pain in fibromyalgia is depression.
Depression test: Tail suspension, forced swimming.

Assay [5] concerns blood mononuclear cells (BMCs) of patients with fibromyalgia. The following applies: BMCs of 20 fibromyalgia patients after metformin. From the text: (§1) In order to study the role of AMPK phosphorylation in patients with fibromyalgia, AMPK activation was induced with metformin, a potent AMPK stimulator, in the BMCs of 20 patients.
(§2) In order to evaluate the effect of metformin in in vitro models of fibromyalgia, we will use mononuclear cells isolated from patients with fibromyalgia and kept under culture conditions, with RPMI medium with 10% serum and 5% CO2. Parallel to this, skin fibroblasts isolated from patients with fibromyalgia kept under culture with DMEM medium with 20% serum and 5% CO2 will be used. These cultures will enable us to evaluate the toxicity of different doses of metformin and compounds that induce AMPK phosphorylation, through the quantification of apotosis and cell growth, by counting the nuclei of live cells. Once the ideal working dose has been found, below 5 mM, we will be able to quantify the protection against stressful stimuli through the effect of hydrogen peroxide, a very potent free radical. Using flow cytometry, we will evaluate the production of ROS before and after the treatment below 5 mM. Other parameters to be quantified at these doses will be ATP, by means of luminometry, citrate synthase as a marker of mitochondrial mass, by means of enzyme kinetics spectrophotometry, and inflammatory interleukins by means of ELISA.

The test system of assay [6] is fibroblasts of patients with fibromyalgia. The assay is described as follows: Protection of patient fibroblasts exposed to hydrogen peroxide (cell death). The assay is classed as cell-based, human. Conditions: low doses of hydrogen peroxide with metformin added, FIG. 4.
Method: Parallel to this, skin fibroblasts isolated from patients with fibromyalgia kept under culture with DMEM medium with 20% serum and 5% CO2 will be used. […] Once the ideal working dose has been found, below 5 mM, we will be able to quantify the protection against stressful stimuli through the effect of hydrogen peroxide, a very potent free radical. Using flow cytometry, we will evaluate the production of ROS before and after the treatment below 5 mM. Other parameters to be quantified at these doses will be ATP, by means of luminometry, citrate synthase as a marker of mitochondrial mass, by means of enzyme kinetics spectrophotometry, and inflammatory interleukins by means of ELISA.
The conditions of assay [7]: neuropathic pain (Russe et al., 2013), adiposis dolorosa (Labuzek et al., 2013); cited from earlier work.
Assay [8] deals with inflammasome (IL-1β, IL-18) in BMCs of patients with fibromyalgia. The assay is described as follows: IL-1β and IL-18 inflammasome interleukins in cells of fibromyalgia patients. In kind it is cell-based, human.
Source text: as §1, §2

[9] abbreviates: BMCs of fibromyalgia patients after metformin, FIG. 3.

In the case of `c1cc(-c2cnn3cc(-c4ccc(OCCN5CCCCC5)cc4)cnc23)ccn1` [compound c], the “symptoms typical of fibromyalgia, such as pain or depression” value in assay [1] is reported as “presented symptoms typical of fibromyalgia”. For the same compound, the “response latency to the thermal stimulus (hot-plate test)” value in assay [2] is recorded as “decrease in the response latency”. In addition, in assay [3], the “ATP (deficit)” value is listed as “induced alterations”, the “citrate synthase (mitochondrial mass)” value was “induced alterations”, the lipid peroxidation entry is listed as “induced alterations” and the “activation of IL-1β interleukin of the inflammasome” value is recorded as “induced alterations”. The “activation of IL-18 interleukin of the inflammasome” value in assay [3] is recorded as “induced alterations”. In addition, the “paralysis (immobilisation) in tail suspension test, reflecting depression” value in assay [4] is “greater paralysis”.

In the case of `CN(C)C(=N)N=C(N)N` [metformin], the ATP levels result in assay [5] (FIG. 1) was “significant recovery”. Moreover, in assay [5] (FIG. 2), the “mitochondrial ROS” value is “decrease”. In addition, the cell death result in assay [6] is reported as “significantly reduced”. Further, the “symptoms typical of fibromyalgia, such as pain or depression” value in assay [1] was “recovery in the symptoms”. Moreover, the analgesic effect entry in assay [7] was “strong analgesic effect”. Besides, in assay [3] (mice with inhibited AMPK), the “inhibition of the inflammasome” value is “demonstrated inhibition of the inflammasome”. In assay [3], the “ATP (deficit)” value was “restored”, the “citrate synthase (mitochondrial mass)” value was “restored”, the lipid peroxidation result is listed as “restored” and the “activation of IL-1β interleukin of the inflammasome” value is on record as “restored”. Also, the “activation of IL-18 interleukin of the inflammasome” value in assay [3] was “restored”. For the same compound, in assay [8] (setting [9]), the “IL-1β interleukin of the inflammasome” value is “decrease” and the “IL-18 interleukin of the inflammasome” value was “decrease”. Besides, the “inhibition of the inflammasome” value in assay [8] (cells of patients with fibromyalgia) is “demonstrated inhibition of the inflammasome”.

These data come from patent US20150272911A1, “Use of AMPK Inducers and Metformin for the Treatment of Fibromyalgia” (priority 2014, published 2015).
